One block for each molecule: values may come before it. The source made the active and inactive calls. No cut-off for these calls is given here.
Columns and labels:
Mus musculus [1] = test: Anti-hyperglycemic activity in ob/ob mouse assessed as reduction in fasting blood glucose level at 100 mg/kg, po administered once daily and measured after 4 days relative to control; type: functional; settings: 96 h, time 4 day
[2] = Cytotoxicity against C57BL/6J mouse primary hepatocytes assessed as cell viability at 200 uM incubated for 24 hrs by MTT assay relative to control; type: toxicity, cell-based, Hepatocyte; settings: read-out: Activity
[3] = Cytotoxicity against C57BL/6J mouse primary hepatocytes assessed as cell viability at 20 uM incubated for 24 hrs by MTT assay relative to control; type: toxicity, cell-based, Hepatocyte; settings: read-out: Activity
[4] = Inhibition of gluconeogenesis in C57BL/6J mouse primary hepatocytes assessed as inhibition of glucagon-stimulated glucose production at 2.5 uM preincubated for 1.5 hrs followed by lactate and pyruvate addition and later stimulated with glucagon for 4 hrs; type: functional; settings: Hepatocyte, time 5.5 hrs
[5] = target: Serine/threonine-protein kinase SIK1 (Mus musculus) (UniProt Q60670); test: Activation of SIK1 in C57BL/6J mouse primary hepatocytes assessed as increase in SIK1 phosphorylation at Thr182 residue measured after 2 hrs by western blot analysis; type: cell-based; settings: Primary hepatocyte, filed as activator, dose 2.5-10 µM, DDE = dose-dependent effect
Serine/threonine-protein kinase SIK1 (Mus musculus), sequence (Q60670 whole entry): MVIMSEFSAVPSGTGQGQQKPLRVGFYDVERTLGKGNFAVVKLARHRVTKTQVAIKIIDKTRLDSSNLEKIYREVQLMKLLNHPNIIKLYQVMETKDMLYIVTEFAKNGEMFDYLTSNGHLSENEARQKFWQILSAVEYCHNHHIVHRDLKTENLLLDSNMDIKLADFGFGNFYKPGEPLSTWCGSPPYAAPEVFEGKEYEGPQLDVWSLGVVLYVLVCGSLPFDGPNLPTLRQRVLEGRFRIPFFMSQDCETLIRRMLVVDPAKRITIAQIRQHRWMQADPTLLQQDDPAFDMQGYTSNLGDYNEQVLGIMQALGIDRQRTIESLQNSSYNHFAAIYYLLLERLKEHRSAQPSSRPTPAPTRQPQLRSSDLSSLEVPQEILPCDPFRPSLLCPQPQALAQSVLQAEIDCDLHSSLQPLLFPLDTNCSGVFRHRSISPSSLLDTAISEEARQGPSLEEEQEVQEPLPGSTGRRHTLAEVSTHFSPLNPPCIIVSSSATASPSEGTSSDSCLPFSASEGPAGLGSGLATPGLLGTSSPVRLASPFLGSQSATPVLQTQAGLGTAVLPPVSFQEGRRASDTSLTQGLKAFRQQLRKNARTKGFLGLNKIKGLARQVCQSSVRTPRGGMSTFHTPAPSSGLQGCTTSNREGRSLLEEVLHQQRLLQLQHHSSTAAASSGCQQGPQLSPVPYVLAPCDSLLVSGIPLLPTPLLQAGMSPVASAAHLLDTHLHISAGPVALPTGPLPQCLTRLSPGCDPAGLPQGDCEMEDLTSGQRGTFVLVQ

Mus musculus [6] = test: Anti-hyperlipidemic activity in ob/ob mouse assessed as reduction in total cholesterol level in serum at 100 mg/kg, po administered once daily for 21 days; type: functional, organism-based; settings: time 21.0 day
[7] = target: Serine/threonine-protein kinase SIK1 (Mus musculus) (UniProt Q60670); test: Activation of SIK1 in C57BL/6J mouse primary hepatocytes assessed as decrease in CREB phosphorylation at 2.5 to 10 uM incubated for 2 hrs by western blot analysis; type: cell-based; settings: Primary hepatocyte, filed as activator, dose 2.5-10 µM, DDE = dose-dependent effect
[8] = target: Serine/threonine-protein kinase SIK1 (Mus musculus) (UniProt Q60670); test: Activation of SIK1 in C57BL/6J mouse primary hepatocytes assessed as decrease in glucagon-stimulated CREB phosphorylation at 2.5 to 10 uM incubated for 2 hrs by western blot analysis; type: cell-based; settings: Primary hepatocyte, filed as activator, dose 2.5-10 µM, DDE = dose-dependent effect
Mus musculus [9] = test: Acute hypoglycemic activity in type 2 diabetic ob/ob mouse assessed as reduction in fasting blood glucose level at 100 mg/kg, po administered as single dose and measured for 10 hrs; type: functional, organism-based
[10] = Cytotoxicity against C57BL/6J mouse primary hepatocytes assessed as cell viability at 10 uM incubated for 24 hrs by MTT assay relative to control; type: toxicity, cell-based, Hepatocyte; settings: read-out: Activity
Mus musculus [11] = test: Anti-hyperglycemic activity in ob/ob mouse assessed as reduction in non-fasting blood glucose level at 100 mg/kg, po administered once daily and measured after 8 days relative to control; type: functional; settings: 192 h, time 8 day
Hepatocyte [12] = test: Inhibition of gluconeogenesis in C57BL/6J mouse primary hepatocytes assessed as inhibition of glucagon-stimulated glucose production preincubated for 1.5 hrs followed by lactate and pyruvate addition and later stimulated with glucagon for 4 hrs; type: functional, cell-based; settings: dose 2.5-10 µM, time 5.5 hrs, DDE = dose-dependent effect
Mus musculus [13] = test: Anti-hyperlipidemic activity in ob/ob mouse assessed as reduction in serum triglyceride level at 100 mg/kg, po administered once daily for 21 days; type: functional, organism-based; settings: time 21.0 day
Mus musculus [14] = test: Anti-hyperglycemic activity in ob/ob mouse assessed as reduction in fasting blood glucose level at 100 mg/kg, po administered once daily and measured after 21 days relative to control; type: functional; settings: 504 h, time 21 day
Mus musculus [15] = test: In vivo activation of SIK1 in ob/ob mouse assessed as decrease in CREB phosphorylation in liver at 100 mg/kg, po administered once daily for 21 days by western blot analysis; type: functional, organism-based; settings: time 21.0 day
Mus musculus [16] = test: Anti-hyperglycemic activity in ob/ob mouse assessed as reduction in non-fasting blood glucose level at 100 mg/kg, po administered once daily and measured after 21 days relative to control; type: functional; settings: 504 h, time 21 day
[17] = Inhibition of gluconeogenesis in C57BL/6J mouse primary hepatocytes assessed as inhibition of glucagon-stimulated glucose production at 5 uM preincubated for 1.5 hrs followed by lactate and pyruvate addition and later stimulated with glucagon for 4 hrs; type: functional; settings: Hepatocyte, time 5.5 hrs
[18] = target: Serine/threonine-protein kinase SIK1 (Mus musculus) (UniProt Q60670); test: Activation of SIK1 in C57BL/6J mouse primary hepatocytes assessed as decrease in glucagon-stimulated intracellular cAMP accumulation by ELISA; type: cell-based; settings: Primary hepatocyte, filed as activator, dose 2.5-10 µM, DDE = dose-dependent effect
Mus musculus [19] = test: In vivo activation of SIK1 in ob/ob mouse assessed as increase in SIK1 phosphorylation at Thr182 residue in liver at 100 mg/kg, po administered once daily for 21 days by western blot analysis; type: functional, organism-based; settings: time 21.0 day
[20] = Cytotoxicity against C57BL/6J mouse primary hepatocytes assessed as cell viability at 50 uM incubated for 24 hrs by MTT assay relative to control; type: toxicity, cell-based, Hepatocyte; settings: read-out: Activity
[21] = Cytotoxicity against C57BL/6J mouse primary hepatocytes assessed as cell viability at 100 uM incubated for 24 hrs by MTT assay relative to control; type: toxicity, cell-based, Hepatocyte; settings: read-out: Activity
Hepatocyte [22] = test: Inhibition of gluconeogenesis in C57BL/6J mouse primary hepatocytes assessed as inhibition of glucose production preincubated for 1.5 hrs followed by lactate and pyruvate addition; type: functional, cell-based; settings: dose 2.5-10 µM, DDE = dose-dependent effect
[23] = Inhibition of gluconeogenesis in C57BL/6J mouse primary hepatocytes assessed as inhibition of glucagon-stimulated glucose production at 10 uM preincubated for 1.5 hrs followed by lactate and pyruvate addition and later stimulated with glucagon for 4 hrs; type: functional; settings: Hepatocyte, time 5.5 hrs
[24] = Inhibition of gluconeogenesis in C57BL/6J mouse primary hepatocytes assessed as inhibition of glucagon-stimulated glucose production at 0.5 mM preincubated for 1.5 hrs followed by lactate and pyruvate addition and later stimulated with glucagon for 4 hrs; type: functional; settings: Hepatocyte, 5.5 h

- Activity [5]: Dde
- Activity [7]: Dde
- Activity [8]: Dde
- Activity [18]: Dde
SMILES: COC(=O)[C@@]12CCCC3([C@H](OCCO)OC1)[C@H]2CC[C@H]1[C@@H](C)c2ccoc2C[C@@H]13
- inhibition in vivo at 100 mg/kg (Mus musculus [1]): 32.3%
- viability at 24 h, 200 µM [2]: 9.2%
- viability at 24 h, 20 µM [3]: 86.1%
- inhibition at 2.5 µM [4]: 53.4%
- Activity (Mus musculus [6]): Active
- Activity (Mus musculus [9]): Active
- viability at 24 h, 10 µM [10]: 98.4%
- inhibition in vivo at 100 mg/kg (Mus musculus [11]): 41.1%
- inhibition (Hepatocyte [12]): Dde
- Activity (Mus musculus [13]): Active
- inhibition in vivo at 100 mg/kg (Mus musculus [14]): 41.2%
- Activity (Mus musculus [15]): Active
- inhibition in vivo at 100 mg/kg (Mus musculus [16]): 37.6%
- inhibition at 5 µM [17]: 79.6%
- Activity (Mus musculus [19]): Active
- viability at 24 h, 50 µM [20]: 90.1%
- viability at 24 h, 100 µM [21]: 11.1%
- inhibition (Hepatocyte [22]): Dde
- inhibition at 10 µM [23]: 91.4%

SMILES: CN(C)C(=N)NC(=N)N [METFORMIN]
- inhibition at 500 µM [24]: 51.5%

From ChEMBL document CHEMBL5154738, “Design, synthesis and structural-activity relationship studies of phanginin A derivatives for regulating SIK1-cAMP/CREB signaling to suppress hepatic gluconeogenesis” (Eur J Med Chem, 2022)
